Entries after “also recorded” stand apart in the source; their conditions may differ. Oligonucleotides are written 5' to 3', each unit as a sugar letter and its base; * is a phosphorothioate linkage, no mark a phosphodiester; rarer units and linkages stand in square brackets, end groups in braces. Plain capitals give the bases only. d = 2'-deoxy (DNA)

The values below come from patent publication US5276019A, “Inhibitors for replication of retroviruses and for the expression of oncogene products” (The United States of America as represented by the …, priority 1988, dated 1994).

One series concerns S1 nuclease. Description: Nuclease susceptibility, S1 nuclease. Type of series: in vitro ADME. The source says: (§1) Several oligodeoxynucleotides were studied with regard to DNase sensitivity, cf. Table 5. These include cytidine homopolymers, ODN-4 (an anti-message 38-mer complementary to the 3' region of the art/trs region of HIV BH10 clone), and myc-1 (a 15-mer complementary to the initiation codon region of the C-myc oncogene). The DNases employed were predominantly endonuclease S1, the exo- and endonuclease P1, and snake venom (SV) phosphodiesterase. The concentration of S1 nuclease was ten-fold higher ([…]) for reactions of olifo-dC, since both the normal and PS analog were degraded extremely slowly be this enzyme. S1 and P1 nuclease digestion proceeded at 2-45 times more slowly for the S-ODNs than for the normal oligomers, with the […] being somewhat more readily digested than the 28-mer.

Another series relates to P1 nuclease. Description: Nuclease susceptibility, P1 nuclease. Type of series: in vitro ADME.
Excerpt: as §1

The test system of series [1] is HL60 cells. Description: Inhibition of HL60 cell proliferation (cell count). Type of series: cell-based.
Series [2] deals with HL60 cells. Description: DNA synthesis in HL60 cells (3H-thymidine incorporation). Format: cell-based. Particulars: FIG. 4, 50 uM, day 1. The protocol: To obtain the results shown in FIG. 4, nonsense or antisense S-ODNs were added at a final concentration of 50 uM on day 0 to cells seeded at 3×10^5/ml. DNA synthesis was determined on day 1 by incubating cells with 1 uCi 3H-thymidine for 4 hours, after which time 10% trichloroacetic acid was added and acid precipitatable radioactivity was trapped on Whatman glass fiber filters. The filters were subjected to liquid scintillation counting to determine levels of radioactivity.
(Incorporation of labelled thymidine or its analogues reports DNA synthesis.)

Another series deals with gamma-interferon. The series can be described thus: Induction of gamma-interferon in culture supernatant. Format: cell-based. An excerpt: Another mechanism which should be considered is induction of interferon production such as that proposed for phophorothioate analogs of poly-r(I-C). […] Also, since there are no data to support the concept that phosphorothioate internucleotide linkages have a thiol character, and can thus form disulfides, the mechanism of action would likely be different from that proposed for antiviral polynucleotides having thiolated bases such as 5-mercapto-cytosine or -uracil.

Series [3] concerns HTLV-IIIB virus (HIV) in ATH8 cells. The series can be described thus: HIV cytopathic effect inhibition in ATH8 cells. Format: cell-based. Particulars: for anti-HIV activity / protection against cytopathic effect: ATH8 cells. The protocol: Because it is possible that inter-assay variation may create an inappropriate comparison of antiviral activity among agents, experiments were performed simultaneously to make more precise comparisons.
After a number of days in culture, generally 7-10 days, either substantial cell death due to HIV infection (HIV cytopathic effect) or the protective effect of oligos against the cytopathicity of HIV was observed.

The next series in a line: Stability in human serum. Format: in vitro ADME. The note with it: 31P NMR.
Series [4] has as its system T4 molecule in T4 cells (H9 cells). Description: HIV binding to T4 molecule in H9 cells (radiolabelled virus). On the procedure: (§2) The possibility that the S-ODN analogs may interfere with HIV binding to target cells was tested.
The nature of a further series: Solubility. Type of series: physicochemical. Particulars: acetate salts. An excerpt:
Oligodeoxynucleotides with blocks of phosphorothioates at the 3' or 5' ends were synthesized by automatically changing the oxidation cycle at the required point. […] Introduction of a small amount of ammonia vapor, not aqueous ammonia, by a Pasteur pipette solubilized all the solids. The yield determined from absorbance at lambda max was about 30%.

For series [5], the system named is T4, HLA-DR, T8, T3, or Tac antigen on ATH8 cells. The series can be described thus: Surface antigens of ATH8 cells by fluorescent-activated cytofluorometry. Format: cell-based. Particulars: i micromole, sixteen hours. On the procedure:
as §2

The subject of series [6] is de novo HIV DNA synthesis. The series can be described thus: Southern blot analysis of de novo HIV DNA synthesis in ATH8 cells. Format: cell-based. An excerpt: Target cells (1×10^7 ATH8 cells) were pretreated with or without S-dC28 at various concentrations for sixteen hours, then treated with Polynrene, exposed to HIV (500 virus particles per cell), resuspended, and cultured in the presence or absence of S-dC28. On days 4 and 7 following the exposure to the virus, high molecular weight DNA was extracted, digested with Asp718 (a Kpn I isoschizomer from Boehringer-Mannheim, Indianapolis, Ind.), and subjected to Southern blot analysis hybridized with a labelled insert of molecular clone of the env region of HTLV-III (BH10) containing a 1.3 Kb Bgl II fragment.
On days 4 and 7 following the exposure to the virus, a substantial amount of viral DNA was detected by Southern blot analysis without antiviral agents.
On day 4, shown in lanes A-E, and day 7, shown in lanes F-J, following exposure to the virus, high molecular weight DNA was extracted. Lanes A and F contain DNA from ATH8 cells that were exposed to the virus and not protected by S-dC28. Lanes B and G, C and H, D and I, contain DNA from ATH8 cells pretreated and cultured with 1 micromole, 5 micromoles, and 7 micromoles S-dC28, respectively. Lanes E and J contain DNA from ATH8 cells treated with 50 micromoles 2',3'-dideoxyadenonsine, and lane K contains DNA from ATH8 cells that was not exposed to the virus.

Another series deals with p24 gag protein of HIV. The series can be described thus: HIV gag protein expression in chronically HIV-infected H9 cells (indirect immunofluorescence). Type of series: cell-based. The note with it: up to 25 micromoles, 120 hours. On the procedure:
The percentage of cells expressing p24 gag protein of HIV was determined by indirect immunofluorescence microscopy by using anti-HIV p24 murine monoclonal antibody.
Generally, it has been assumed that anti-sense sequences inhibit the expression of various genes by translation arrest, i.e. that they bind to mRNA and block its translation. In order to test this possibility, gag protein synthesis was analyzed in chronically HIV-infected and -producing H9 cells by indirect immunofluorescent assay under a microscope. […] Alternatively, the level of any translation arrest could have been below the threshold of detection by indirect immunofluorescent assay under a microscope. […] Therefore, one mechanism for the antiviral effect could depend on blocking viral replication perhaps prior to, or at the stage of, pro-viral DNA synthesis.

A short description of series [7]: Stability in in vitro test media followed by 31P NMR. Type of series: in vitro ADME. An excerpt:
The phosphorothioate oligodeoxynucleotides of the present invention have suitable chemical characteristics, namely, the ability to hybridize with complementary DNA/mRNA under physiological conditions, and better solubility properties relative to methylphosphonates. Moreover, the thioesters are as soluble in biological media as the parent compounds.
Thus, it is believed that it is mainly the relative resistance of the phosphorothioate analogs to nucleases that preserves them relative to n-ODNs, and allows them to reach and remain at their target site. This was supported in relation to the media used in the in vitro test system by following the 31P NMR spectra of the n-ODN-1 and S-ODN-1 compounds as a function of time.

Turning to dAACGTTGAGGGGCAT [S-myc-1], the “Ratio t1/2 PSoligo/t1/2 POoligo” value with S1 nuclease (ODN-4 and myc-1) was found to be 9; in the series on P1 nuclease, 4. In addition, the “effect on cell proliferation” value in the series on HL60 cells [1] (0.1 micro M, FIG. 3) is on record as “effective”. Besides, the “concentration relative to that required for the normal oligomer” value in the series on HL60 cells [1] (HL60 cells) is listed as “less than 1%”. For the same molecule, the “inhibition of cell proliferation (cell count)” value with HL60 cells [1] (HL60 cells, listed as anti-sense sequence) is on record as “significant inhibition of cell proliferation”; in the series on HL60 cells [1] (HL60 cells, listed as phosphorothioate oligodeoxynucleotide analogs of the same anti-sense sequence), “inhibit proliferation of HL60 cells”. Besides, in the series on HL60 cells [2], the “inhibition of cell proliferation (3H-thymidine incorporation)” value was “significant inhibition of cell proliferation”.
Regarding (dC)n n = 14 [S-dC14], the induction of gamma-interferon result in the series with gamma-interferon was “No induction of gamma-interferon”. Also, the “protection against the virus” value in series [3] (5 micromoles) was “only a moderate effect”. Also, the “anti-HIV activity / protection against cytopathic effect” value (shortened to “anti-HIV activity / protection”) in series [3] was “the most potent antiviral compound among those tested”; in [3] (listed as 14-mer oligo-dC), “substantial protection against HIV cytopathic effect”.
Consider “dAACGTTGAGGGGCAT [O-myc-1, reference compound]”, for which the “half-life in 50% human serum” value in the series “Stability in human serum” is recorded as “two to three”.
“d-(Gs Gs As Gs As Cs As Gs Cs Gs As Cs Gs A) [S-ODN-2]”: the “anti-HIV activity / protection” value in series [3] is reported as “protected against HIV”.
Regarding (dC)n n = 28 [S-dC28], the “inhibition of HIV binding to T4 molecule” value in series [4] is “No inhibition”. Also, the “solubility in 1M NaCl” value in “Solubility” is “extremely insoluble in 1M NaCl”. Also, the “Ratio t1/2 PSoligo/t1/2 POoligo” value in the series on S1 nuclease (oligo-dC, ten-fold higher S1 concentration) was found to be 2; in the series on P1 nuclease, 15. Also, in series [5], the “changes in T4, HLA-DR, T8, T3, or Tac antigen” value is given as “no detectable changes”. For the same molecule, in [6] (1, 5 and 7 micromoles S-dC28 (lanes B-D, G-I), days 4 and 7), the “2.7 Kb env-containing internal KPN I fragment of virus genome” value was “detected only in lanes A and F”. The “lowest concentration with complete inhibition of de novo synthesis of HIV DNA” value in [6] (Southern blot) came out at 1 µmol. Moreover, the “lowest concentration significantly inhibiting de novo synthesis of viral DNA” value in series [6] (Southern blot, days 4 and 7) was determined as 1 µM. In addition, the “gag protein positivity” value in the series with p24 gag protein of HIV is given as “failed to reduce gag protein positivity; also recorded: did not inhibit gag protein positivity”. Besides, in [3] (0.5 micromoles), the “protection against the virus” value is listed as “complete protection against the virus; also recorded: complete antiviral activity”. In addition, the “inhibition of viral replication and protection of ATH8 cells” value in [3] (3 micromoles) is 100%. The “anti-HIV activity / protection” value in series [3] is “the most consistent and durable antiviral effects; also recorded: one of the most potent analogs tested”. Also, the “therapeutic index (ratio of cytotoxic to effective concentration)” value in series [3] (in vitro) is “comparable in vitro index to those of dideoxycytidine and dideoxyadenosine”.
Turning to “d-(Ts Cs Gs Ts Cs Gs Cs Ts Gs Ts Cs Ts Cs C) [S-ODN-1]”, the phosphorothioate bonds intact result in series [7] (10 days) is given as “still intact after 10 days”. Besides, the degradation entry in series [7] (a week) is “no significant degradation even after a week”. In [7] (after 10 days), the “decomposition based on the total signal intensity” value is “less than 5%”. In addition, the “anti-HIV activity / protection” value in series [3] was “substantial activity against HIV; also recorded: protected against HIV”.
As for “nonsense S-ODN: 5'-CTG AAG TGG CAT GAG; non-sense, same composition as anti-sense but in random sequence (dC*dT*dG*dA*dA*dG*dT*dG*dG*dC*dA*dT*dG*dA*dG) [reference compound]”, the “inhibition of cell proliferation (cell count)” value in the series with HL60 cells [1] (HL60 cells) is “not all nonsense S-ODN concentrations affected cell proliferation”; in the series on HL60 cells [1] (HL60 cells, listed as non-sense sequence), “none of the controls used, namely, the non-sense sequence, has shown similar activity”.
On to `Nc1ncnc2c1ncn2[C@H]1CC[C@@H](CO)O1` [2',3'-dideoxyadenosine, reference compound], for which the “2.7 Kb env-containing internal KPN I fragment of virus genome” value in [6] (50 micromoles (lanes E, J), days 4 and 7) is “detected only in lanes A and F”. The minimal effective concentration in series [6] (Human immunodeficiency virus 1, ATH-8, Southern blot, days 4 and 7, read-out: lowest concentration significantly inhibiting de novo synthesis of viral DNA) came to 1 µM.
With `Nc1ccn([C@H]2CC[C@@H](CO)O2)c(=O)n1` [2',3'-dideoxycytidine, reference compound], the “protection against the virus” value in series [3] (0.5 micromoles) is reported as “complete antiviral activity”.

B1: recombinant gamma-interferon: recombinant gamma-interferon (protein, UniProt P01579 24-161, looked up)
Interferon gamma: QDPYVKEAENLKKYFNAGHSDVADNGTLFLGILKNWKEESDRKIMQSQIVSFYFKLFKNFKDDQSIQKSVETIKEDMNVKFFNSNKKKRDDFEKLTNYSVTDLNVQRKAIHELIQVMAELSPAAKTGKRKRSQMLFRG
For B1, the “inhibition of cytopathic effect” value in series [3] (1000 units added directly to cultures) is recorded as “did not inhibit the cytopathic effect”.
